Tests used:
Beta-secretase 1 [1] = target: T1, Beta-secretase 1 (Homo sapiens, UniProt P56817); test: In Vitro BACE Cell-Based Assay: The cell-based assay measures inhibition or reduction of Aβ40 in conditioned medium of test compound treated cells expressing amyloid precursor protein. Cells stably expressing Amyloid Precursor Protein (APP) were plated at a density of 40K cells/well in 96 well plates (Costar). The cells were cultivated for 24 hours at 37° C. and 5% CO2 in DMEM supplemented with 10% FBS. The test compounds were then added to cells in 10-point dose response concentrations with the starting concentration being either 100 uM or 10 uM. The compounds were diluted from stock solutions in DMSO and the final DMSO concentration of the test compounds on cells was 0.1%. After 24 h of incubation with the test compounds the supernatant conditioned media was collected and the Aβ 40 levels were determined using a sandwich ELISA.
Beta-secretase 1 [2] = target: T1, Beta-secretase 1; test: In Vitro Enzymatic BACE FRET Assay: The assay buffer used in this screen is 0.05 M acetate, pH 4.2, 10% DMSO final, 100 uM genapol (which is a nonionic detergent, below its Critical Micelle Concentration). The Beta Secretase enzyme (0.2 nM) is pre-incubated for one hour with inhibitors, typically in about 1 uL of DMSO according to a serial dilution, are added thereto. This assay is effectively started by the addition of FRET substrate (50 nM) and the combination is incubated for one hour. The FRET assay is terminated with by addition of Tris buffer, which raises the pH to neutrality, and the fluorescence is determined. The FRET substrate is a peptide with commercially available fluorophore and quencher, on opposite sides of the BACE cleavage site. Proteolytic cleavage of the FRET substrate releases quenching of fluorescence (excitation 488 nm and […]).
Cathepsin D = Cathepsin D (Homo sapiens, UniProt P07339); test: In Vitro Enzymatic Cathepsin D FRET Assay: Recombinant Cat D was expressed in CHO cells. The assay buffer for CathepsinD is 0.05 M citrate pH 3.5, 10% DMSO final, 5 mM CHAPS. The Cat D enzyme (9 nM) is pre-incubated for one hour with inhibitors, typically in about 1 uL of DMSO according to a serial dilution, is added thereto. The assays are effectively started by the addition of different FRET substrates (20 nM for Cat D) and the combination is incubated for one hour. The FRET assay is terminated with by addition of Tris buffer, which raises the pH to neutrality, and the fluorescence is determined. The FRET substrate is a peptide with commercially available fluorophore and quencher, on opposite sides of the BACE cleavage site. […] Proteolytic cleavage of the FRET substrate releases quenching of fluorescence (Cat D excitation 500 nm and emission 580 nm).; type: cell-based
Sequence of Cathepsin D (P07339 65-162 limits assumed): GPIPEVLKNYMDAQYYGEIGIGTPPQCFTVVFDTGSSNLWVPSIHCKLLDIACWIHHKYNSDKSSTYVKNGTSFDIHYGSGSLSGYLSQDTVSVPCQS
Sequence of Cathepsin D (P07339 169-412 limits assumed): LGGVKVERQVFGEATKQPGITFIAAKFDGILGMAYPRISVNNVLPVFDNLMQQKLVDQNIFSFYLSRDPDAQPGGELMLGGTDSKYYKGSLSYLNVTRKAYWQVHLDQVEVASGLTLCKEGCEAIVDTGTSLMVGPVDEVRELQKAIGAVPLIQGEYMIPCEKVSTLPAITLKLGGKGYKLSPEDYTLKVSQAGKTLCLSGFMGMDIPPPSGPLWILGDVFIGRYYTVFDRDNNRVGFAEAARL

T1 sequence (P56817 whole entry): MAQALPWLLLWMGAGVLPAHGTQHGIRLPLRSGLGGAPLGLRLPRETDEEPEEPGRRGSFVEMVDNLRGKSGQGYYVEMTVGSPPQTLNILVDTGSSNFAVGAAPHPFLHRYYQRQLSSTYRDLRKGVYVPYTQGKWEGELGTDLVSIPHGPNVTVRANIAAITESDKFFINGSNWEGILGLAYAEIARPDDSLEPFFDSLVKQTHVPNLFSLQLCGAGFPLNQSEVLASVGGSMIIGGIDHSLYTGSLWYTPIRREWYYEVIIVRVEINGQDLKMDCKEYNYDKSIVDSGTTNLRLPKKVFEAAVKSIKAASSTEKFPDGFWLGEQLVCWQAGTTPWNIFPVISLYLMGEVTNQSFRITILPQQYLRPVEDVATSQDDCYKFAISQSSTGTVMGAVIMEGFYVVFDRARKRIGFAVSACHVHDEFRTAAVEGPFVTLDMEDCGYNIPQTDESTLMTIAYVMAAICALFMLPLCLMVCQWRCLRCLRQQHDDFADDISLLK

## COC(=O)c1ccnc(Oc2ccc(F)c([C@]3(CF)C[C@@H](C(F)(F)F)OC(N)=N3)c2)c1
Beta-secretase 1 [1]
  IC50: 3.56 µM

## C#CCOc1ccc(C(=O)Nc2cc(F)c(F)c([C@]3(C)C[C@@H](C(F)(F)F)OC(N)=N3)c2)nc1
Beta-secretase 1 [2]
  IC50: 0.01 µM
Cathepsin D
  IC50: 1190 µM
Beta-secretase 1 [1]
  IC50: 0.012 µM

## Cc1cc(OCC2CC2)cnc1C(=O)Nc1ccc(F)c([C@]2(CF)C[C@@H](C(F)(F)F)OC(N)=N2)c1
Beta-secretase 1 [2]
  IC50: 0.12 µM
Cathepsin D; cho
  IC50: > 400 µM
Beta-secretase 1 [1]
  IC50: 0.487 µM

— ChEMBL document CHEMBL3886610, “Perfluorinated 5,6-dihydro-4H-1,3-oxazin-2-amine compounds as beta-secretase inhibitors and methods of use” (2016)
